Data taken from paper PMC3261769 (Journal of Medicinal Chemistry, 2011).
Blank lines part the entries; values can stand above or below the compound they belong to.

What was measured:
[1] = test system: HAOSMC human aortic smooth muscle cells; conditions: read-out: IC50 ± SD HAOSMC; ref [16]; cited from earlier work
[2] = test system: PtK2 kidney epithelial cells; conditions: read-out: IC50 ± SD PtK2; ref [16]; cited from earlier work
[3] = test system: MCF-7 human breast carcinoma cells; conditions: read-out: IC50 ± SD MCF-7; ref [16]; cited from earlier work
[4] = test system: A10 rat embryonic aortic smooth muscle cells; conditions: read-out: IC50 ± SD A10; ref [16]; cited from earlier work
[5] = test system: HUVEC human umbilical vein endothelial cells; conditions: read-out: IC50 ± SD HUVEC; ref [16]; cited from earlier work
[6] = iv and os pharmacokinetics in mice; type: in vivo; conditions: male, CD-1, mouse, plasma, 5 mg/kg
[7] = test system: OVCAR-3 cells; assay: Growth inhibition of OVCAR-3 cells; type: cell-based, human
[8] = test system: A2780-CIS cells (cisplatin-resistant); assay: Growth inhibition of A2780-CIS cells; type: cell-based, human
[9] = test system: A2780wt cells; assay: Growth inhibition of A2780wt cells; type: cell-based, human; conditions: read-out: IC50 ± SD A2780wt
[10] = test system: tubulin; assay: Inhibition of tubulin polymerization; type: biochemical; conditions: read-out: tubulin assembly inhibition; footnotes of Table 4

SMILES: CC(=O)O[C@H]1C(=O)[C@@]2(C)[C@H]([C@H](OC(=O)c3ccccc3)[C@]3(O)C[C@H](OC(=O)[C@H](O)[C@@H](NC(=O)c4ccccc4)c4ccccc4)C(C)=C1C3(C)C)[C@]1(OC(C)=O)CO[C@@H]1C[C@@H]2O [PTX, paclitaxel]
IC50 [1]: 6 ± 6 nM | IC50 [2]: 21 ± 8 nM | IC50 [3]: 3 ± 0.5 nM | IC50 [4]: 38 ± 10 nM | IC50 [5]: 7 ± 4 nM

SMILES: N.N.[Cl][Pt][Cl] [cisplatin]
RI-2 (Resistant Index-2) ([7]; IC50 in OVCAR-3 divided by IC50 in A2780wt): 3.7 | IC50 ([7]; read-out: IC50 ± SD OVCAR-3): 1820 ± 254 nM | RI-1 (Resistant Index-1) ([8]; IC50 in A2780-CIS divided by IC50 in A2780wt): 18.5 | IC50 ([8]; read-out: IC50 ± SD A2780-CIS): 8980 ± 565 nM | IC50 [9]: 485 ± 60 nM

The next lines start with the values.

clearance [6]: 28.6 mL/min/kg
SMILES: COc1cc(Sc2c(-c3cc[nH]c3)[nH]c3ccccc23)cc(OC)c1OC [Compound 5, 2-(1H-Pyrrol-3-yl)-3-[(3′,4′,5′-trimethoxyphenyl)thio]-1H-indole]

IC50 [10]: 3100 nM
SMILES: CCC1=C[C@@H]2CN(C1)Cc1c([nH]c3ccccc13)[C@@](C(=O)OC)(c1cc3c(cc1OC)N(C)[C@H]1[C@@](O)(C(=O)OC)[C@H](OC(C)=O)[C@]4(CC)C=CCN5CC[C@]31[C@@H]54)C2 [VRB, vinorelbine]
